Laboratory results taken from patent US12435060B2, “Acylamino bridged heterocyclic compound, and composition and application thereof” (BEIJING SCITECH-MQ PHARMACEUTICALS LIMITED, priority 2019, dated 2025).

system: HT29 cells; test: Inhibition of cell necrosis (CCK8 method), induced programmed necrosis of HT29 cells; format: cell-based; settings: Homo sapiens, HT-29; rescue from necrosis induced by TNF-α 20 ng/mL, AT-406 1 μM, Z-VAD-FMK 20 μM; 16-20 hours; CCK-8, OD 450 nm
How it was run: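 HT29 cells in McCOY's 5A with 10% FBS were pre-treated for 30 min with compound (9 fourfold steps, 25000 to 0.38 nM final, 0.25% DMSO). Necrosis was then induced with TNF-α 20 ng/mL, AT-406 1 μM and Z-VAD-FMK 20 μM for 16-20 h. Viability was read by CCK-8 OD450, normalized between uninduced and induced wells, and IC50 was curve-fitted.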

SMILES | IC50 [nM]
Cc1ccc(OCCCC(C)(C)O)cc1-c1cc(NC(=O)c2nnc(CC3CCCCC3)[nH]2)ncc1C [Example 241, 5-(cyclohexylmethyl)-N-(4-(5-((4-hydroxy-4-methylpentyl)oxy)-2-methylphenyl)-5-methylpyridin-2-yl)-4H-1,2,4-triazole-3-carboxamide] | 100 to 1000
CCC(O)(CC)CCCOc1ccc(C)c(-c2cc(NC(=O)c3nnc(Cc4ccccc4F)[nH]3)ncc2F)c1 [Example 242, N-(4-(5-((4-ethyl-4-hydroxyhexyl)oxy)-2-methylphenyl)-5-fluoropyridin-2-yl)-5-(2-fluorobenzyl)-4H-1,2,4-triazole-3-carboxamide] | ≤ 100
CCC(O)(CC)CCCOc1ccc(C)c(-c2cc(NC(=O)c3nnc(CC4CCCCC4)[nH]3)ncc2F)c1 [Example 243, 5-(cyclohexylmethyl)-N-(4-(5-((4-ethyl-4-hydroxyhexyl)oxy)-2-methylphenyl)-5-fluoropyridin-2-yl)-4H-1,2,4-triazole-3-carboxamide] | ≤ 100
CCC(O)(CC)CCCOc1ccc(C)c(-c2cc(NC(=O)c3nnc(Cc4ccccc4F)[nH]3)ncc2Cl)c1 [Example 244, N-(5-chloro-4-(5-((4-ethyl-4-hydroxyhexyl)oxy)-2-methylphenyl)pyridin-2-yl)-5-(2-fluorobenzyl)-4H-1,2,4-triazole-3-carboxamide] | ≤ 100
CCC(O)(CC)CCCOc1ccc(C)c(-c2cc(NC(=O)c3nnc(CC4CCCCC4)[nH]3)ncc2Cl)c1 [Example 245, N-(5-chloro-4-(5-((4-ethyl-4-hydroxyhexyl)oxy)-2-methylphenyl)pyridin-2-yl)-5-(cyclohexylmethyl)-4H-1,2,4-triazole-3-carboxamide] | ≤ 100
CCC(O)(CC)CCCOc1ccc(C)c(-c2cc(NC(=O)c3nnc(CC4CCCCC4)[nH]3)ncc2C)c1 [Example 246, 5-(cyclohexylmethyl)-N-(4-(5-((4-ethyl-4-hydroxyhexyl)oxy)-2-methylphenyl)-5-methylpyridin-2-yl)-4H-1,2,4-triazole-3-carboxamide] | 100 to 1000
Cc1ccc(OCCCCC(C)(C)O)cc1-c1cc(NC(=O)c2nnc(Cc3ccccc3F)[nH]2)ncc1Cl [Example 247, N-(5-chloro-4-(5-((5-hydroxyl-5-methylhexyl)oxy)-2-methylphenyl)pyridin-2-yl)-5-(2-fluorobenzyl)-4H-1,2,4-triazole-3-carboxamide] | 100 to 1000
Cc1ccc(OCCCCC(C)(C)O)cc1-c1cc(NC(=O)c2nnc(CC3CCCCC3)[nH]2)ncc1Cl [Example 248, 5-(cyclohexylmethyl)-N-(5-chloro-4-(5-((5-hydroxyl-5-methylhexyl)oxy)-2-methylphenyl)pyridin-2-yl)-4H-1,2,4-triazole-3-carboxamide] | 100 to 1000
Cc1ccc(OCC2CCOCC2)cc1-c1cc(NC(=O)c2nnc(Cc3ccccc3F)[nH]2)ncc1Cl [Example 249, N-(5-chloro-4-(2-methyl-5-((tetrahydro-2H-pyran-4-yl)methoxy)phenyl)pyridin-2-yl)-5-(2-fluorobenzyl)-4H-1,2,4-triazole-3-carboxamide] | 100 to 1000
Cc1ccc(OCC2CCOCC2)cc1-c1cc(NC(=O)c2nnc(CC3CCCCC3)[nH]2)ncc1Cl [Example 250, N-(5-chloro-4-(2-methyl-5-((tetrahydro-2H-pyran-4-yl)methoxy)phenyl)pyridin-2-yl)-5-(cyclohexylmethyl)-4H-1,2,4-triazole-3-carboxamide] | ≤ 100
Cc1ccc(OCCC2CCOCC2)cc1-c1cc(NC(=O)c2nnc(Cc3ccccc3F)[nH]2)ncc1Cl [Example 251, N-(5-chloro-4-(2-methyl-5-(2-(tetrahydro-2H-pyran-4-yl)ethoxy)phenyl)pyridin-2-yl)-5-(2-fluorobenzyl)-4H-1,2,4-triazole-3-carboxamide] | ≤ 100
Cc1ccc(OCCC2CCOCC2)cc1-c1cc(NC(=O)c2nnc(CC3CCCCC3)[nH]2)ncc1Cl [Example 252, N-(5-chloro-4-(2-methyl-5-(2-(tetrahydro-2H-pyran-4-yl)ethoxy)phenyl)pyridin-2-yl)-5-(cyclohexylmethyl)-4H-1,2,4-triazole-3-carboxamide] | ≤ 100
Cc1ccc(OCCC2CCOCC2)cc1-c1cc(NC(=O)c2nnc(Cc3ccccc3F)[nH]2)ncc1C [Example 253, 5-(2-fluorobenzyl)-N-(5-methyl-4-(2-methyl-5-(2-(tetrahydro-2H-pyran-4-yl)ethoxy)phenyl)pyridin-2-yl)-4H-1,2,4-triazole-3-carboxamide] | 100 to 1000
Cc1ccc(OCCC2CCOCC2)cc1-c1cc(NC(=O)c2nnc(CC3CCCCC3)[nH]2)ncc1C [Example 254, 5-(cyclohexylmethyl)-N-(5-methyl-4-(2-methyl-5-(2-(tetrahydro-2H-pyran-4-yl)ethoxy)phenyl)pyridin-2-yl)-4H-1,2,4-triazole-3-carboxamide] | 100 to 1000
CC(C)(O)CCCOc1ccc(C(F)(F)F)c(-c2ccnc(NC(=O)c3nnc(Cc4ccccc4F)[nH]3)c2)c1 [Example 255, 5-(2-fluorobenzyl)-N-(4-(5-((4-hydroxy-4-methylpentyl)oxy)-2-(trifluoromethyl)phenyl)pyridin-2-yl)-4H-1,2,4-triazole-3-carboxamide] | ≤ 100
CC(C)(O)CCCOc1ccc(C(F)(F)F)c(-c2ccnc(NC(=O)c3nnc(Cc4cccc(F)c4)[nH]3)c2)c1 [Example 256, 5-(3-fluorobenzyl)-N-(4-(5-((4-hydroxy-4-methylpentyl)oxy)-2-(trifluoromethyl)phenyl)pyridin-2-yl)-4H-1,2,4-triazole-3-carboxamide] | ≤ 100
CC(C)(O)CCCOc1ccc(C(F)(F)F)c(-c2ccnc(NC(=O)c3nnc(Cc4ccc(F)cc4)[nH]3)c2)c1 [Example 257, 5-(4-fluorobenzyl)-N-(4-(5-((4-hydroxy-4-methylpentyl)oxy)-2-(trifluoromethyl)phenyl)pyridin-2-yl)-4H-1,2,4-triazole-3-carboxamide] | ≤ 100
CC(C)(O)CCCOc1ccc(C(F)(F)F)c(-c2ccnc(NC(=O)c3nnc(CC4CCCC4)[nH]3)c2)c1 [Example 258, 5-(cyclopentylmethyl)-N-(4-(5-((4-hydroxy-4-methylpentyl)oxy)-2-(trifluoromethyl)phenyl)pyridin-2-yl)-4H-1,2,4-triazole-3-carboxamide] | ≤ 100
CC(C)(O)CCCOc1ccc(C(F)(F)F)c(-c2ccnc(NC(=O)c3nnc(CC4CCCCC4)[nH]3)c2)c1 [Example 259, 5-(cyclohexylmethyl)-N-(4-(5-((4-hydroxy-4-methylpentyl)oxy)-2-(trifluoromethyl)phenyl)pyridin-2-yl)-4H-1,2,4-triazole-3-carboxamide] | ≤ 100
CCC(O)(CC)CCCOc1ccc(C(F)(F)F)c(-c2ccnc(NC(=O)c3nnc(Cc4ccccc4)[nH]3)c2)c1 [Example 260, 5-benzyl-N-(4-(5-((4-ethyl-4-hydroxyhexyl)oxy)-2-(trifluoromethyl)phenyl)pyridin-2-yl)-4H-1,2,4-triazole-3-carboxamide] | ≤ 100
CCC(O)(CC)CCCOc1ccc(C(F)(F)F)c(-c2ccnc(NC(=O)c3nnc(Cc4ccccc4F)[nH]3)c2)c1 [Example 261, 5-(2-fluorobenzyl)-N-(4-(5-((4-ethyl-4-hydroxyhexyl)oxy)-2-(trifluoromethyl)phenyl)pyridin-2-yl)-4H-1,2,4-triazole-3-carboxamide] | ≤ 100
